In patent publication US20220098203A1 (priority 2018, published 2022):
Read-outs that look alike come from different tables or passages of the source.

Biological target: T1, MAT2A homodimer (Homo sapiens, UniProt P31153)
T1 construct: inferred from the Ni sepharose purification and imidazole elution; made in house; host or cells: SF9 insect cells, recombinant baculovirus (Bac to Bac, pFASTBAC1)
Test: MAT2A biochemical assay (liberated phosphate, PiColorLock Gold)
Details: read-out: Enzyme Inhibition
Procedure: Mat2A protein was expressed by recombinant baculovirus in SF9 infected cells using the Bac to Bac system cloned into the pFASTBAC1 vector (Invitrogen, Carlsbad, Calif.). Recombinant MAT2A was isolated from the cell lysate of 150 g of infected cells using HP Ni sepharose column chromatography. Recombinant MAT2A homodimer was eluted with 250 and 500 mM imidazole, and fractions containing MAT2A were identified by sodium dodecyl sulfate polyacrylamide gel electrophoresis and pooled.
Test compound was prepared in 100% dimethyl sulfoxide (DMSO) at 50× the desired final concentration. A 1 μL volume of compound dilution was added to 40 μL of enzyme dilution and the mixture was allowed to equilibrate for 60 minutes at 25° C. The enzymatic assay was initiated by the addition of 10 μL of substrate mix (500 μM ATP, pH 7.0, 400 μM L-methionine in 1× assay buffer), and the mixture was incubated for a further 60 minutes at 25° C. The reaction was halted and the liberated phosphate released by the enzyme in stoichiometric amounts by the production of S-adenosyl methionine (SAM) was measured using the PiColorLock Gold kit (Innova Biosciences, UK). Absolute product amounts were determined by comparison to a standard curve of potassium phosphate buffer, pH 8.0.

[1] = Table 5a, MAT2A biochemical assay

T1 sequence (P31153 whole entry): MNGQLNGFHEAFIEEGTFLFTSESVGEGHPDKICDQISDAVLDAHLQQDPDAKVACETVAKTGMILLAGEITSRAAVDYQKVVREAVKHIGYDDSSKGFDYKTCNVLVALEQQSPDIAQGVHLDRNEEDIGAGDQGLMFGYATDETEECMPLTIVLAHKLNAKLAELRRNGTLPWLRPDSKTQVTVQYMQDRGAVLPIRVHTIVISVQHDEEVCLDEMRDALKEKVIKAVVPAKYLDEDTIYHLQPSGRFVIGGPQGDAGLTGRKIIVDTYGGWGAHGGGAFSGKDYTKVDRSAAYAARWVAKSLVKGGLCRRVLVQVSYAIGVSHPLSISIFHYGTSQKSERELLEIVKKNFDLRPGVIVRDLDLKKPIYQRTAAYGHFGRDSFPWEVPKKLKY

| Compound | IC50 (Table 5b, Additional Examples) | IC50 [1] |
| --- | --- | --- |
| O=C1N(c2ccc3nccn3c2)Cc2cnc(NCC(F)(F)F)nc2N1c1ccc(C2CC2)cc1 [Example 213, 1-(4-cyclopropylphenyl)-3-(imidazo[1,2-a]pyridin-6-yl)-7-((2,2,2-trifluoroethyl)amino)-3,4-dihydropyrimido[4,5-d]pyrimidin-2(1H)-one] | – | < 100 nM |
| Cn1cc(N2Cc3cnc(NCC(F)(F)F)nc3N(c3ccc(-c4nc[nH]n4)cc3)C2=O)ccc1=O [Example 221, 1-(4-(1H-1,2,4-triazol-3-yl)phenyl)-3-(1-methyl-6-oxo-1dihydropyridin-3-yl)-7-((2,2,2-trifluoroethyl)amino)-3,4-dihydropyrimido[4,5-d]pyrimidin-2(1H)-one] | – | 100 to 1000 nM |
| COc1ccc(N2Cc3cnc(SC)nc3N(c3ccc(Cl)c(C(F)(F)F)c3)C2=O)cc1 | > 10000 nM | – |
| CCOc1ccc2c(n1)N(c1cnc(C(F)(F)F)nc1)C(=O)N(c1ccc3nn(C)cc3c1)C2 [Example 148, 7-ethoxy-3-(2-methyl-2H-indazol-5-yl)-1-(2-(trifluoromethyl)pyrimidin-5-yl)-3,4-dihydropyrido[2,3-d]pyrimidin-2(1H)-one] | – | 100 to 1000 nM |
| COc1ccc(N2Cc3cnc(NCC(F)(F)F)nc3N(c3ccc4nccn4c3)C2=O)cc1 [Example 260] | – | 1000 to 10000 nM |
| CCOc1cc2c(cn1)CN(c1ccc3nn(C)cc3c1)C(=O)N2c1ccc(Cl)cc1 [Example 418, 1-(4-chlorophenyl)-7-ethoxy-3-(2-methyl-2H-indazol-5-yl)-3,4-dihydropyrido[4,3-d]pyrimidin-2(1H)-one] | – | 100 to 1000 nM |
| Cn1cc2cc(N3Cc4ccc(OCC(F)F)nc4N(c4ccc5nccn5c4)C3=O)ccc2n1 [Example 171, 7-(2,2-difluoroethoxy)-1-(imidazo[1,2-a]pyridin-6-yl)-3-(2-methyl-2H-indazol-5-yl)-3,4-dihydropyrido[2,3-d]pyrimidin-2(1H)-one] | – | < 100 nM |

More lines, now with the values ahead:

| IC50 (Table 5b, Additional Examples) | IC50 [1] | Compound |
| --- | --- | --- |
| > 10000 nM | – | COc1ccc(N2Cc3cnc(NCC(F)(F)F)nc3N(c3ccc(-c4ccsc4)cc3)C2=O)cc1 |
| – | 100 to 1000 nM | COc1ccc(N2Cc3cnc(NCC(F)(F)F)nc3N(c3ccc(-c4cn[nH]n4)cc3)C2=O)cc1 [Example 192, 1-(4-(2H-1,2,3-triazol-4-yl)phenyl)-3-(4-methoxyphenyl)-7-((2,2,2-trifluoroethyl)amino)-3,4-dihydropyrimido[4,5-d]pyrimidin-2(1H)-one] |
| – | 100 to 1000 nM | COc1ccc(N2Cc3cnc(NCC(F)(F)F)nc3N(c3ccc(C(C)C)cc3)C2=O)cc1 [Example 212, 1-(4-isopropylphenyl)-3-(4-methoxyphenyl)-7-((2,2,2-trifluoroethyl)amino)-3,4-dihydropyrimido[4,5-d]pyrimidin-2(1H)-one] |
| – | < 100 nM | COc1ccc(N2Cc3cnc(NCC(F)(F)F)nc3N(c3ccc(N(C)C)cc3)C2=O)cc1 [Example 201, 1-(4-(dimethylamino)phenyl)-3-(4-methoxyphenyl)-7-((2,2,2-trifluoroethyl)amino)-3,4-dihydropyrimido[4,5-d]pyrimidin-2(1H)-one] |
| – | 100 to 1000 nM | COc1ccc(N2Cc3cnc(NCC(F)(F)F)nc3N(c3ccc(C4(O)CC4)cc3)C2=O)cc1 [Example 278, 1-(4-(1-hydroxycyclopropyl)phenyl)-3-(4-methoxyphenyl)-7-((2,2,2-trifluoroethyl)amino)-3,4-dihydropyrimido[4,5-d]pyrimidin-2(1H)-one] |
| – | 1000 to 10000 nM | COC(=O)Cc1ccc(N2C(=O)N(c3ccc(OC)cc3)Cc3cnc(NCC(F)(F)F)nc32)cc1 [Example 205, methyl 2-(4-(3-(4-methoxyphenyl)-2-oxo-7-((2,2,2-trifluoroethyl)amino)-3,4-dihydropyrimido[4,5-d]pyrimidin-1(2H)-yl)phenyl)acetate] |
| – | 1000 to 10000 nM | COc1ccc(N2Cc3cnc(NCC(F)(F)F)nc3N(c3ccc(Cl)c(Cl)c3)C2=O)cc1 [Example 245, 1-(3,4-dichlorophenyl)-3-(4-methoxyphenyl)-7-((2,2,2-trifluoroethyl)amino)-3,4-dihydropyrimido[4,5-d]pyrimidin-2(1H)-one] |
